The values that follow come from patent US5294634A, “Osteogenesis promoter” (Zeria Pharmaceutical Co., Ltd., priority 1989, dated 1994).

Data set [1] relates to femoral diaphysis. Nature of the data set: DNA content in femoral diaphysis of young rats (Test Example 1). The data set is classed as in vivo, young Wistar rats. The conditions noted are these: oral, 5.5 mg/kg body weight in terms of zinc; for change in DNA content in the femoral diaphysis: 3 days, in words; for DNA: once a day for 3 days, 24 h after last dose, average ± standard error, control 1.450 ± 0.020. On the procedure: (§1) The osteogenesis-stimulating action of the zinc complex of L-carnosine was confirmed by the calcium content, zinc content, alkaline phosphatase activity and DNA content in the femoral diaphysis of young rats used. Zinc sulfate was used as a comparative compound.
(§2) Young Wistar rats were used regarding five rats as one group. […] A control group was orally given with a solvent alone.
(§3) The agent to be tested was administered for 3 days once a day in an amount corresponding to 5.5 mg/kg body weight in terms of zinc. Upon elapsed time of 24 hours after the last dose, the rats were sacrificed and the femoral regions were taken out of each rat under light ether anesthesia. Soft tissues and bone marrow were removed from the femoral region. The diaphysis and epiphysis (including metaphyseal tissues) were separated from each other to form fragments of the femoral diaphysis.
A small fragment of the fempral diaphysis was subjected to homogenization for bone tissue, followed by its shaking together with 4.0 ml of 0.1N sodium hydroxide solution cooled with ice. After the thus-treated homogenate was subjected to alkali extraction, the extract was centrifuged at 10,000×g for 5 minutes. The thus-obtained supernatant liquid was used for the measurement in accordance with the Ceriotti method [J. Biol. Chem., 214, 39-77 (1955)]. The DNA content was expressed in terms of the total DNA content (mg) per gram of a wet bone.
(§4) The data were shown as average value±standard error. The significant difference was determined using the Student's t-test.

In the next data set the test system is rats. Nature of the data set: Oral acute toxicity (Test Example 2). The data set is classed as in vivo, Wister male and female rats. The conditions noted are these: 10 g/kg body weight, observation for 7 days, male and female rats. From the text:
Using Wister male and female rats of 150-200 g by weight regarding 10 rats as respective groups, the crystalline zinc complex of L-carnosine in a dose of 10 g/kg body weight) was orally administered to each rat.

Data set [2] has as its system femoral diaphysis. Nature of the data set: Zinc content in femoral diaphysis of young rats (Test Example 1). The conditions noted are these: oral, 5.5 mg/kg body weight in terms of zinc, once a day for 3 days; 24 h after last dose; average ± standard error; control 156.9 ± 7.7. Type of data set: in vivo, young Wistar rats. On the procedure:
as §1, §2, §3
A fragment of the femoral diaphysis was digested with nitric acid [Biochem. Pharmacol., 36, 4007-4012 (1986)] to measure the content of zinc by atomic adsorption spectrophotometry. The zinc content was expressed in terms of micrograms of zinc per gram of a wet bone.
as §4

Data set [3] relates to femoral diaphysis. Briefly: Calcium content in femoral diaphysis of young rats (Test Example 1, osteogenesis-stimulating action). Type of data set: in vivo, young Wistar rats. The note with it: oral, 5.5 mg/kg body weight in terms of zinc, once a day for 3 days; 24 h after last dose; average ± standard error; control 386.5 ± 6.5. On the procedure: as §1, §2, §3
The femoral diaphysis tissue was ashed for 24 hours at 640° C. to weigh the resulting ash. Thereafter, the ash was dissolved in 6N hydrochloric acid to measure its calcium content by atomic absorption spectrophotometry. The calcium content in the bone was expressed in terms of mg per g of the bone ash.
as §4

For data set [4], the system named is femoral diaphysis. Briefly: Osteogenesis-stimulating action (overall, Test Example 1). The conditions noted are these: for change in zinc content, calcium content and alkaline phosphatase activity in the femoral diaphysis: oral, 5.5 mg/kg body weight in terms of zinc, 3 days, in words. The data set is classed as in vivo, young Wistar rats. How it is done: as §1, §2, §3

The test system of another data set is alkaline phosphatase. Briefly: Alkaline phosphatase activity in femoral diaphysis of young rats (Test Example 1). The data set is classed as in vivo, young Wistar rats. The note with it: oral, 5.5 mg/kg body weight in terms of zinc, once a day for 3 days; 24 h after last dose; average ± standard error; control 1599.6 ± 74.5. How it is done:
as §1, §2
The agent to be tested was administered for 3 days once a day in an amount corresponding to 5.5 mg/kg body weight in terms of zinc. Upon elapsed time of 24 hours after the last dose, the rats were sacrificed and the femoral regions were taken out of each rat under light ether anesthesia. […]
The femoral diaphysis tissue was immersed into 3 ml of ice-cold 6.5 mM barbital buffer solution (pH: 7.4) and then cut into pieces to uniformly grind them by a Potter-Blvehjem homogenizer equipped with a Teflon pestle. […] The alkaline phosphatase activity was determined in accordance with the Wallter-Schutt procedure [Bergmeyer HU (ed), Methods of enzymatic analysis, Vol. 1-2, Academic Press, New York, pp. 856-860 (1965)]. […] The concentration of protein was measured in accordance with the method by Lowry et al. [J. Biol. Chem., 193, 265-273 (1951)].
as §4

For data set [5] the following is noted: in vivo; cited from earlier work.

With `NCCC(=O)[N-][C@@H](Cc1c[nH]cn1)C(=O)[O-].[Zn+2]` [L-carnosine zinc complex, Crystalline Zinc Complex of L-Carnosine], in the data set with femoral diaphysis [1], the “change in DNA content in the femoral diaphysis” value was “increased” and the DNA turned out to be 2.931 ± 0.100 mg/g wet bone. Also, the dead cases entry with rats is reported as “dead cases were not recognized”. The Zinc in the data set with femoral diaphysis [2] was 235.0 ± 9.1 μg/g wet bone. Further, the Calcium content in the data set on femoral diaphysis [3] is listed as 458.1 ± 8.7 mg/g bone ash. Also, the “change in zinc content, calcium content and alkaline phosphatase activity in the femoral diaphysis” value in the data set with femoral diaphysis [4] is listed as “increased”. Besides, the “osteogenesis-stimulating action compared with zinc sulfate” value in the data set with femoral diaphysis [4] (same amounts (5.5 mg/kg body weight) in terms of zinc) is recorded as “stronger osteogenesis-stimulating action than zinc sulfate”. Besides, the Alkaline phosphatase in the data set on alkaline phosphatase turned out to be 1963.4 ± 118.3 μmol/min/mg protein.
With `O=S(=O)([O-])[O-].[Zn+2]` [Zinc sulfate, zinc sulfate, reference compound], in the data set on femoral diaphysis [1], the “change in DNA content in the femoral diaphysis” value is recorded as “a significant change was not produced” and the DNA is given as 1.510 ± 0.050 mg/g wet bone. Also, in the data set with femoral diaphysis [2], the Zinc is on record as 206.7 ± 9.8 μg/g wet bone. In the data set on femoral diaphysis [3], the Calcium content is recorded as 405.8 ± 4.5 mg/g bone ash. Moreover, in the data set with femoral diaphysis [4], the “change in zinc content, calcium content and alkaline phosphatase activity in the femoral diaphysis” value is on record as “increased”. For the same molecule, in data set [5], the side effects result was “vomiting, nausea and diarrhea”. The Alkaline phosphatase in the data set with alkaline phosphatase is on record as 2580.5 ± 80.3 μmol/min/mg protein.
